Source: ChEMBL document CHEMBL1131495, “2,4-Diamino-6,7-dihydro-5H-cyclopenta[d]pyrimidine analogues of trimethoprim as inhibitors of Pneumocystis carinii and Toxoplasma gondii dihydrofolate reductase” (J Med Chem, 1998)

Columns and labels:
[1] = target: T1, Bifunctional dihydrofolate reductase-thymidylate synthase (Toxoplasma gondii, UniProt Q07422); assay: Compound was tested for inhibition activity against Toxoplasma gondii (Toxoplasma gondii) Dihydrofolate reductase
T1 sequence (Q07422 whole entry): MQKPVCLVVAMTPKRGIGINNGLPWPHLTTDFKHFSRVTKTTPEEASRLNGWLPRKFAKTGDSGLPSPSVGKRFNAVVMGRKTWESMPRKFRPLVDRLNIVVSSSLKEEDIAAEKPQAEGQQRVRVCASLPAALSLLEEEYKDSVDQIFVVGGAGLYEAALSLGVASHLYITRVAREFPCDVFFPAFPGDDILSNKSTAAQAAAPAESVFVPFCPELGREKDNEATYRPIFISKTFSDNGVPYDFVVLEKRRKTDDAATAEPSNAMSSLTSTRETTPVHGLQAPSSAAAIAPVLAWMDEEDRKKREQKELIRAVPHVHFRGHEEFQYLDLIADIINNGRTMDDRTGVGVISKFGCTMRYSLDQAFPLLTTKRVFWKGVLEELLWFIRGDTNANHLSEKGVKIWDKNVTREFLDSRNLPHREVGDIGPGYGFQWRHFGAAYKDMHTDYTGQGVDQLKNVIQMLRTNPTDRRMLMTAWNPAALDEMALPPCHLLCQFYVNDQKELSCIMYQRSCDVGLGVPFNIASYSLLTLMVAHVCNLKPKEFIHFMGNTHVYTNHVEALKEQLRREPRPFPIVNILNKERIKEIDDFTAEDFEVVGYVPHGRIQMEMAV

[2] = Selectivity ratio is the ratio between the IC50 values of rat liver and Pneumocystis carinii
[3] = Selectivity ratio is the ratio between the IC50 values of rat liver and Toxoplasma gondii
[4] = target: T2, Dihydrofolate reductase (Pneumocystis carinii, UniProt P16184)
T2 sequence (P16184 whole entry): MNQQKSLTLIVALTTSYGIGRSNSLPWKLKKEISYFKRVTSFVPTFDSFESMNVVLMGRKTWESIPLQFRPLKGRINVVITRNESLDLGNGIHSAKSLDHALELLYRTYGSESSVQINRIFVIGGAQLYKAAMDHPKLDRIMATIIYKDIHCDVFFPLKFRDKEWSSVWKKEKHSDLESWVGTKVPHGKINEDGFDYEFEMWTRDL
Description: Compound was tested for inhibition activity against pneumocystis carinii (Pneumocystis carinii) Dihydrofolate reductase

[5] = target: T3, Dihydrofolate reductase (Rattus norvegicus, UniProt Q920D2)
T3 sequence (Q920D2 whole entry): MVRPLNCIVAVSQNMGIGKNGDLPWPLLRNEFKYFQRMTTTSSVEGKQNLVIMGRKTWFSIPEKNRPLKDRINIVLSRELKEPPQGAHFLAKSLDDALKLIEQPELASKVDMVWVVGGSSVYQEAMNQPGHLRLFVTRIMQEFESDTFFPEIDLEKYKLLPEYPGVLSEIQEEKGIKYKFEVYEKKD
Description: Compound was tested for inhibition activity against rat liver lipophilic Dihydrofolate reductase (DHFR).

Row | Selectivity ratio [2] | IC50 [4] [nM] | IC50 [5] [nM] | SMILES | IC50 [1] [nM] | Selectivity ratio [3]
1 | 0.17 | 1300 | 220 | COc1cc(CCCC2CCc3nc(N)nc(N)c32)cc(OC)c1OC (stereo not given) | 140 | 1.57
2 | – | – | 15 | COc1ccc(OC)c(Cc2cnc3nc(N)nc(N)c3c2C)c1 [PIRITREXIM] | – | –
3 | – | > 32000 | 69000 | COc1cc(CC2CCc3nc(N)nc(N)c32)cc(OC)c1OC (stereo not given) | 21000 | 3.29
4 | 0.28 | 1800 | 510 | COc1cc(CCC2CCc3nc(N)nc(N)c32)cc(OC)c1OC (stereo not given) | 140 | 3.64
